# Laboratory results as given in patent publication US20250215460A1, “MICROBIAL […] THE CONVERSION OF CARBOHYDRATES” (Ohio State Innovation Foundation, priority 2022, published 2025).
# Tests used:
# [1] = tested on: C. tyrobutyricum Δcat1::adhE2; assay: Batch fermentation of glucose in serum bottles with methyl viologen added; format: cell-based, Clostridium tyrobutyricum
# Text: Artificial electron carriers such as methyl viologen, benzyl viologen and neutral red have been used in solventogenic clostridia to increase butanol production through diverting electron flow towards NADH formation accompanied by decreased hydrogen production. An artificial electron carrier, such as methyl viologen (MV) and benzyl viologen (BV), was used to inhibit hydrogen production and increase NADH pool and butanol production by C. tyrobutyricum expressing adhE2. C. tyrobutyricum Δcat1::adhE2 was cultured in Clostridia Growth Medium (CGM) containing glucose as the carbon source in serum bottles at 37° C. The medium pH was buffered at ˜5.5 with CaCO3. At 24 h after initial seeding the bottles, methyl viologen was added at various concentrations (up to 1000 μM) to study its effects on cell growth and butanol production. […] The highest butanol yield and productivity were obtained at 500 μM MV. Similar results can also be achieved with other electron carriers such as benzyl viologen and neutral red.
# [2] = tested on: C. tyrobutyricum Δcat1::adhE2; assay: Batch fermentations of glucose and xylose in bioreactors at pH 6.0 with methyl viologen; format: cell-based, Clostridium tyrobutyricum
# Experimental: Batch fermentations of glucose and xylose by C. tyrobutyricum Δcat1::adhE2 were studied in bioreactors at pH 6.0 in the presence of methyl viologen (MV) at various concentrations (0 μM, 200 μM, 500 μM, 1000 μM). For glucose fermentation, MV was added at 12 h after inoculation. […] The fermentation time course data are shown in FIGS. 11A-11H and the effects of MV on cell growth and fermentation kinetics are illustrated in FIG. 12. […] Similar trends were also observed with xylose as the substrate at 200 μM MV. […] The results also indicate that biomass hydrolysate sugars including glucose and xylose can be used simultaneously and converted to butanol by engineered C. tyrobutyricum expressing adhE2.
smiles,measurement,setting,value
"C[n+]1ccc(-c2cc[n+](C)cc2)cc1 [MV, methyl viologen]",Effect on acetate and butanol production from glucose,"[1]; MV up to 1000 μM added at 24 h, pH ~5.5, 37° C.",dramatically reduced acetate production and increased butanol production
same,MV concentration at which lactate was also produced as a byproduct,"[1]; glucose, pH ~5.5",≥ 200 µM
same,MV concentration giving the highest butanol yield and productivity,"[1]; glucose, pH ~5.5",500 µM
same,"Toxicity to cells, xylose compared to glucose","[2]; bioreactor, pH 6.0",more toxic to cells grown on xylose
same,Effect on product formation with increasing MV concentration,"[2]; glucose as substrate, MV 0-1000 μM added at 12 h, pH 6.0",butanol and lactate production increased while acetate and butyrate production decreased
same,Effect on cell growth and fermentation,"[2]; xylose as substrate, 500 μM and 1000 μM MV added at 24 h, pH 6.0",completely inhibited cell growth and stopped fermentation
same,Effect on cell growth and fermentation (figure legend),"[2]; xylose fermentation, 500 mM and 1000 mM MV, addition delayed to 24 h",completely inhibited cell growth and fermentation
